From article PMC5792594, “Engineering yeast for the production of breviscapine by genomic analysis and synthetic biology approaches” (Nature Communications, 2018)

Test system: T1, EbF7GAT
T1 construct: gene F7GAT; tag removal not mentioned
Experiment: HPLC of glucuronide product, initial-rate kinetics
Type: biochemical, Erigeron breviscapus
Details: UDP-glucuronic acid as donor (1 mM in standard assay), 50 mM Tris-HCl pH 7.5, 37 °C

Row | Structure (SMILES) | Km (10 min, 0.1-20 µM apigenin) | Km (5-300 µM scutellarein)
1 | O=c1cc(-c2ccc(O)cc2)oc2cc(O)cc(O)c12 [apigenin] | 9.24 µM | –
2 | O=c1cc(-c2ccc(O)cc2)oc2cc(O)c(O)c(O)c12 [scutellarein] | – | 70.2 µM
